{"source": "EPA's ToxRefDB 2", "key": {"rat [1]": {"tested_on": "rat", "settings": "Sub-acute repeat dose toxicity, sprague dawley, Oral, Feed, dose end: 10 day, group: systemic"}, "rat [2]": {"tested_on": "rat", "settings": "Subchronic oral toxicity in rodents, sprague dawley, Gavage/Intubation, dose end: 91 day, group: systemic"}, "rabbit": {"tested_on": "rabbit", "settings": "Sub-acute repeat dose toxicity; new zealand white; Oral; Gavage/Intubation; dose end: 4 day; group: systemic; systemic / in life observation / clinical signs / erythema + systemic / in life observation / clinical signs / tachypnea"}, "rat [3]": {"tested_on": "rat", "settings": "Sub-acute repeat dose toxicity, sprague dawley, Oral, Gavage/Intubation, dose end: 14 day, group: systemic"}, "mouse": {"tested_on": "mouse", "settings": "Sub-acute repeat dose toxicity; Oral; Feed; dose end: 10 day; group: systemic; systemic / in life observation / body weight / body weight + systemic / in life observation / food consumption / food consumption"}, "dog [4]": {"tested_on": "dog", "settings": "Subchronic oral toxicity in nonrodent, beagle, Gavage/Intubation, dose end: 91 day, group: systemic"}, "rat [5]": {"tested_on": "rat", "settings": "Sub-acute repeat dose toxicity, sprague dawley, Oral, Gavage/Intubation, dose end: 12 day, group: systemic"}, "dog [6]": {"tested_on": "dog", "settings": "Sub-acute repeat dose toxicity, beagle, Oral, Gavage/Intubation, dose end: 15 day, group: systemic"}, "[7]": {"settings": "systemic / in life observation / body weight / body weight + systemic / in life observation / clinical signs / drooping eyelids (ptosis) + …"}, "[8]": {"settings": "systemic / in life observation / body weight / body weight + systemic / in life observation / clinical signs / lacrimation or red-colored …"}, "[9]": {"settings": "systemic / organ weight / heart / absolute + systemic / pathology microscopic / thyroid gland / hypertrophy + systemic / in life observation…"}, "[10]": {"settings": "systemic / pathology microscopic / blood vessel / arteritis + systemic / in life observation / body weight / body weight"}, "[11]": {"settings": "systemic / clinical chemistry / alkaline phosphatase (alp/alk) / alkaline phosphatase (alp/alk) + systemic / clinical chemistry / bilirubin…"}, "[12]": {"settings": "systemic / in life observation / clinical signs / emesis"}, "[13]": {"settings": "systemic / in life observation / clinical signs / salivation"}, "[14]": {"settings": "systemic / in life observation / clinical signs / salivation + systemic / in life observation / food consumption / food consumption + …"}, "[15]": {"settings": "systemic / in life observation / clinical signs / arrhythmia + systemic / in life observation / clinical signs / emesis"}, "[16]": {"settings": "systemic / in life observation / clinical signs / arrhythmia + systemic / in life observation / clinical signs / emesis + systemic / in life…"}}, "data": [{"molecule": "CCCOc1ccc(S(=O)(=O)N2CCN(CC)CC2)cc1-c1nc2c(CC)n(Cc3ccccn3)nc2c(=O)[nH]1", "values": [{"measurement": "LOAEL", "setting": "rat [1]; [7]", "result": "> 2000", "unit": "mg/kg/day"}, {"measurement": "NOAEL", "setting": "rat [1]; [7]", "result": "≥ 2000", "unit": "mg/kg/day"}, {"measurement": "LEL", "setting": "rat [1]; [8]", "result": 500, "unit": "mg/kg/day"}, {"measurement": "NEL", "setting": "rat [1]; [8]", "result": "< 500", "unit": "mg/kg/day"}, {"measurement": "NEL", "setting": "rat [2]; systemic / organ weight / heart / absolute + systemic / pathology microscopic / thyroid gland / hypertrophy", "result": 25, "unit": "mg/kg/day"}, {"measurement": "LEL", "setting": "rat [2]; [9]", "result": 100, "unit": "mg/kg/day"}, {"measurement": "LOAEL", "setting": "rat [2]; [9]", "result": "> 400", "unit": "mg/kg/day"}, {"measurement": "NOAEL", "setting": "rat [2]; [9]", "result": "≥ 400", "unit": "mg/kg/day"}, {"measurement": "LEL", "setting": "rabbit", "result": 400, "unit": "mg/kg/day"}, {"measurement": "LOAEL", "setting": "rabbit", "result": "> 400", "unit": "mg/kg/day"}, {"measurement": "NEL", "setting": "rabbit", "result": "< 400", "unit": "mg/kg/day"}, {"measurement": "NOAEL", "setting": "rabbit", "result": "≥ 400", "unit": "mg/kg/day"}, {"measurement": "NEL", "setting": "rat [3]; systemic / pathology microscopic / blood vessel / arteritis", "result": 45, "unit": "mg/kg/day"}, {"measurement": "LEL", "setting": "rat [3]; [10]", "result": 200, "unit": "mg/kg/day"}, {"measurement": "LOAEL", "setting": "rat [3]; [10]", "result": "> 200", "unit": "mg/kg/day"}, {"measurement": "NOAEL", "setting": "rat [3]; [10]", "result": "≥ 200", "unit": "mg/kg/day"}, {"measurement": "LEL", "setting": "mouse", "result": 2000, "unit": "mg/kg/day"}, {"measurement": "LOAEL", "setting": "mouse", "result": "> 2000", "unit": "mg/kg/day"}, {"measurement": "NOAEL", "setting": "mouse", "result": "≥ 2000", "unit": "mg/kg/day"}, {"measurement": "LOAEL", "setting": "dog [4]; [11]", "result": "> 100", "unit": "mg/kg/day"}, {"measurement": "NOAEL", "setting": "dog [4]; [11]", "result": "≥ 100", "unit": "mg/kg/day"}, {"measurement": "LEL", "setting": "dog [4]; [12]", "result": 10, "unit": "mg/kg/day"}, {"measurement": "NEL", "setting": "dog [4]; [12]", "result": "< 10", "unit": "mg/kg/day"}, {"measurement": "LEL", "setting": "rat [5]; [13]", "result": 100, "unit": "mg/kg/day"}, {"measurement": "NEL", "setting": "rat [5]; [13]", "result": "< 100", "unit": "mg/kg/day"}, {"measurement": "LOAEL", "setting": "rat [5]; [14]", "result": "> 400", "unit": "mg/kg/day"}, {"measurement": "NOAEL", "setting": "rat [5]; [14]", "result": "≥ 400", "unit": "mg/kg/day"}, {"measurement": "LEL", "setting": "dog [6]; [15]", "result": 15, "unit": "mg/kg/day"}, {"measurement": "NEL", "setting": "dog [6]; [15]", "result": "< 15", "unit": "mg/kg/day"}, {"measurement": "LOAEL", "setting": "dog [6]; [16]", "result": "> 150", "unit": "mg/kg/day"}, {"measurement": "NOAEL", "setting": "dog [6]; [16]", "result": "≥ 150", "unit": "mg/kg/day"}]}]}
